Tests used:
Human gammaherpesvirus 4 [1] = test: Inhibitory activity against TPA-induced Epstein-Barr virus early antigen (EBV-EA) activation at a concentration of 1000 mol ratio/TPA; type: functional
Human gammaherpesvirus 4 [2] = test: Inhibitory activity against TPA-induced Epstein-Barr virus early antigen (EBV-EA) activation at a concentration of 500 mol ratio/TPA; type: functional; design: scale not given: the % may be the effect or the level left
Human gammaherpesvirus 4 [3] = test: Inhibitory activity against TPA-induced Epstein-Barr virus early antigen (EBV-EA) activation at a concentration of 10 mol ratio/TPA; values are per cent of control
Human gammaherpesvirus 4 [4] = test: Inhibitory activity against TPA-induced Epstein-Barr virus early antigen (EBV-EA) activation at a concentration of 100 mol ratio/TPA; values are per cent of control

| SMILES | EBV-EA activation (% of control) (Human gammaherpesvirus 4 [1]) [%] | Control (Human gammaherpesvirus 4 [2]) [%] | EBV-EA activation (% of control) (Human gammaherpesvirus 4 [3]) [%] | EBV-EA activation (% of control) (Human gammaherpesvirus 4 [4]) [%] |
| --- | --- | --- | --- | --- |
| CCCCCCCCC=CCCCCCCCC(=O)OC(COC(=O)C=CC=CC=CC=CC=CCCCCCCCCC)CO[C@@H]1O[C@H](CO)[C@H](O)[C@H](O)[C@H]1O (single isomer, unassigned) | 0 | 18.5 | 93.2 | 69.6 |
| CCCCCCCCCC=CC=CC=CC=CC=CC=CC(=O)OC(COC(=O)CCCCCCCCCCCCC)CO[C@@H]1O[C@H](CO)[C@H](O)[C@H](O)[C@H]1O (single isomer, unassigned) | 0 | 64.7 | 100 | 88.3 |
| CCCCCCCCCCCCCC(=O)OC[C@H](CO[C@@H]1O[C@H](CO)[C@H](O)[C@H](O)[C@H]1O)OC(=O)CCCCCCCCCCCCC | 0 | 15.4 | 100 | 88.2 |
| CCCCCCCCC/C=C/C=C/C=C/C=C/C=C/C=C/C(=O)OC[C@H](CO[C@@H]1O[C@H](CO)[C@H](O)[C@H](O)[C@H]1O)OC(=O)/C=C/C=C/C=C/C=C/C=C/C=C/CCCCCCCCC | 0 | 26.3 | 86.8 | 64.8 |
| CCCCCCCC/C=C/CCCCCCCC(=O)OCC(CO[C@@H]1O[C@H](CO)[C@H](O)[C@H](O)[C@H]1O)OC(=O)CCCCCCC/C=C/CCCCCCCC (single isomer, unassigned) | 0 | 11 | 61 | 21.3 |
| CCCCCCCCC/C=C/C=C/C=C/C=C/C=C/C(=O)O[C@H](COC(=O)CCCCCCCCCCCCC)CO[C@@H]1O[C@H](CO)[C@H](O)[C@H](O)[C@H]1O | 15.8 | 30.6 | 90.7 | 72.8 |
| CCCCC/C=C/C/C=C/CCCCCCCC(=O)O[C@H](COC(=O)CCCCCCC/C=C/CCCCCC)CO[C@@H]1O[C@H](CO)[C@H](O)[C@H](O)[C@H]1O | 53.3 | 74.6 | 100 | 100 |
| CCCCCCCCC/C=C/C=C/C=C/C=C/C=C/C=C/C(=O)OC[C@H](CO[C@@H]1O[C@H](CO)[C@H](O)[C@H](O)[C@H]1O)OC(=O)CCCCCCCCCCCCC | 13.8 | 29.7 | 100 | 68.9 |
| CCCCCCCC/C=C/CCCCCCCC(=O)O[C@H](COC(=O)CCCCCCCCCCCCC)CO[C@@H]1O[C@H](CO)[C@H](O)[C@H](O)[C@H]1O | 0 | 16.9 | 100 | 80.4 |
| CCCCC/C=C/C/C=C/CCCCCCCC(=O)O[C@H](COC(=O)CCCCCCCCCCCCC)CO[C@@H]1O[C@H](CO)[C@H](O)[C@H](O)[C@H]1O | 17.1 | 39.6 | 100 | 88.2 |
| CCCCCCCCCCCCCC(=O)OC[C@@H](CO[C@@H]1O[C@H](CO)[C@H](O)[C@H](O)[C@H]1O)OC(C)=O | 17.4 | 36.8 | 77.4 | 52.9 |
| CC/C=C/C/C=C/C/C=C/CCCCCCCC(=O)O[C@H](COC(=O)CCCCCCC/C=C/C/C=C/CCCCC)CO[C@@H]1O[C@H](CO)[C@H](O)[C@H](O)[C@H]1O | 8.7 | 22.2 | 84.9 | 64.5 |
| CCC=CCC=CCC=CCCCCCCCC(=O)O[C@@H](COC(=O)CCCCCCCCCCCCC)CO[C@@H]1O[C@H](CO)[C@H](O)[C@H](O)[C@H]1O | 0 | 20.2 | 100 | 73.9 |
| CCCCCCCC/C=C/CCCCCCCC(=O)OC[C@H](CO[C@@H]1O[C@H](CO)[C@H](O)[C@H](O)[C@H]1O)OC(=O)/C=C/C=C/C=C/C=C/C=C/CCCCCCCCC | 0 | 0 | 81.7 | 53.6 |
| CCCCC/C=C/C/C=C/CCCCCCCC(=O)OCC(O)CO[C@@H]1O[C@H](CO)[C@H](O)[C@H](O)[C@H]1O (single isomer, unassigned) | 0 | 24.1 | 100 | 79.8 |
| CCCCCCCCC/C=C/C=C/C=C/C=C/C=C/C(=O)OC[C@H](CO[C@@H]1O[C@H](CO)[C@H](O)[C@H](O)[C@H]1O)OC(=O)/C=C/C=C/C=C/C=C/C=C/CCCCCCCCC | 0 | 54.3 | 100 | 89 |
| CCCCCCCCC/C=C/C=C/C=C/C=C/C=C/C(=O)O[C@@H](COC(=O)CCCCCCCCCCCCC)CO[C@@H]1O[C@H](CO)[C@H](O)[C@H](O)[C@H]1O | 26.1 | 52.8 | 100 | 84.1 |
| CC/C=C/C/C=C/C/C=C/CCCCCCCC(=O)O[C@H](COC(=O)CCCCCCCCCCCCCCC)CO[C@@H]1O[C@H](CO)[C@H](O)[C@H](O)[C@H]1O | 19.4 | 57.6 | 100 | 92.6 |
| CCCCCCCC/C=C/CCCCCCCC(=O)OC[C@H](CO[C@@H]1O[C@H](CO)[C@H](O)[C@H](O)[C@H]1O)OC(=O)/C=C/C=C/C=C/C=C/C=C/C=C/CCCCCCCCC | 0 | 26.4 | 88.4 | 68.1 |
| CCCCCCCC/C=C/CCCCCCCC(=O)O[C@H](COC(=O)C=C/C=C/C=C/C=C/C=C/C=C/CCCCCCCCC)CO[C@@H]1O[C@H](CO)[C@H](O)[C@H](O)[C@H]1O | 0 | 12.8 | 83.2 | 62.9 |
| OC[C@@H](O)CO[C@@H]1O[C@H](CO)[C@H](O)[C@H](O)[C@H]1O | 0 | 15.8 | 100 | 66.7 |
| CCCCCCCC/C=C/CCCCCCCC(=O)OCC(O)CO[C@@H]1O[C@H](CO)[C@H](O)[C@H](O)[C@H]1O (single isomer, unassigned) | 0 | 0 | 100 | 84.7 |
| CCCCCCCCCCCCCC(=O)OCC(O)CO[C@@H]1O[C@H](CO)[C@H](O)[C@H](O)[C@H]1O (single isomer, unassigned) | 0 | 22.5 | 90.7 | 65.3 |

Source: ChEMBL document CHEMBL1127924, “Synthesis and structure - anti-tumor-promoting activity relationship of monogalactosyl diacylglycerols” (1994)
